US12709592B2, “Salts of treprostinil” (United Therapeutics Corporation, priority 2013, dated 2026)
Where a name gives a salt, the structure may show the parent alone.

experiment: TGA data of UT-15 salts (thermal degradation); format: physicochemical; conditions: thermogravimetric analysis of the isolated solid salt; temperature beyond which weight loss due to degradation occurs
From the text: For all new UT-15 salts, analytical data: IH-NMR, 13C_NMR, IR, purity by HPLC, DSC data, TGA data, water contents, specific rotation were collected.

Compound	TGA: loss due to degradation beyond
CCCCC[C@H](O)CC[C@@H]1[C@H]2Cc3cccc(OCC(=O)O)c3C[C@H]2C[C@H]1O [Arginine Salt]	Moisture = 2.07, degradation beyond 200 °C
CCCCC[C@H](O)CC[C@@H]1[C@H]2Cc3cccc(OCC(=O)O)c3C[C@H]2C[C@H]1O [Choline Salt]	degradation beyond 150 °C
CCCCC[C@H](O)CC[C@@H]1[C@H]2Cc3cccc(OCC(=O)O)c3C[C@H]2C[C@H]1O [L-Lysine Salt]	degradation beyond 200 °C
CCCCC[C@H](O)CC[C@@H]1[C@H]2Cc3cccc(OCC(=O)[O][MgH])c3C[C@H]2C[C@H]1O [Mg Salt]	degradation beyond 250 °C
CCCCC[C@H](O)CC[C@@H]1[C@H]2Cc3cccc(OCC(=O)O)c3C[C@H]2C[C@H]1O [N-Methylglucamine Salt]	degradation beyond 150 °C
CCCCC[C@H](O)CC[C@@H]1[C@H]2Cc3cccc(OCC(=O)[O-])c3C[C@H]2C[C@H]1O.[K+] [Potassium Salt]	degradation beyond 250 °C
